Assay results reported in the NIST ThermoML archive (doi:10.1021/je101178u).
Several values for one entry are separate records, joined by “and”; a condition that tells them apart may be missing. Identical values can stand only once. Numbers after ± are expanded uncertainties.

Details: Fluid (supercritical or subcritical phases); for mass density: Buoyancy - hydrostatic balance with magnetic suspension - one sinker; for viscosity: vibrating wire

CCC [propane]
Details | mass density, 373.15 K | mass density, 423.15 K | viscosity, 373.15 K | viscosity, 423.15 K
79.37 kPa | – | 0.99883 ± 0.003 kg/m3 | – | 0.01136 ± 6.8e-05 mPa·s
158.25 kPa | – | 1.9998 ± 0.0048 kg/m3 | – | 0.01137 ± 6.8e-05 mPa·s
313.56 kPa | – | 3.9954 ± 0.0087 kg/m3 | – | 0.0114 ± 6.9e-05 mPa·s
466.92 kPa | – | 5.9988 ± 0.013 kg/m3 | – | 0.01142 ± 6.9e-05 mPa·s
467.03 kPa | – | 6.0003 ± 0.013 kg/m3 | – | 0.01143 ± 6.9e-05 mPa·s
611.2 kPa | – | 7.9148 ± 0.017 kg/m3 | – | 0.01145 ± 6.9e-05 mPa·s
611.47 kPa | – | 7.9184 ± 0.017 kg/m3 | – | 0.01145 ± 6.9e-05 mPa·s
763.44 kPa | – | 9.9704 ± 0.021 kg/m3 | – | 0.01148 ± 6.9e-05 mPa·s
763.61 kPa | – | 9.9726 ± 0.021 kg/m3 | – | 0.01148 ± 6.9e-05 mPa·s
920.8 kPa | – | 12.133 ± 0.026 kg/m3 | – | 0.01151 ± 6.9e-05 mPa·s and 0.01152 ± 6.9e-05 mPa·s
1060.2 kPa | – | 14.082 ± 0.03 kg/m3 | – | 0.01155 ± 7e-05 mPa·s
1061.3 kPa | – | 14.098 ± 0.03 kg/m3 | – | 0.01155 ± 7e-05 mPa·s
1192.7 kPa | – | 15.966 ± 0.034 kg/m3 | – | 0.01158 ± 7e-05 mPa·s
1193.5 kPa | – | 15.977 ± 0.034 kg/m3 | – | 0.01158 ± 7e-05 mPa·s
1334.7 kPa | – | 18.018 ± 0.038 kg/m3 | – | 0.01162 ± 7e-05 mPa·s
1335.7 kPa | – | 18.032 ± 0.038 kg/m3 | – | 0.01162 ± 7e-05 mPa·s
1454.8 kPa | – | 19.782 ± 0.042 kg/m3 and 19.781 ± 0.042 kg/m3 | – | 0.01166 ± 7e-05 mPa·s
2110 kPa | – | 29.905 ± 0.064 kg/m3 | – | 0.01189 ± 7.2e-05 mPa·s
2110.7 kPa | – | 29.916 ± 0.064 kg/m3 | – | 0.01189 ± 7.2e-05 mPa·s
2704.3 kPa | – | 39.922 ± 0.087 kg/m3 | – | 0.01217 ± 7.3e-05 mPa·s
2704.8 kPa | – | 39.931 ± 0.087 kg/m3 | – | 0.01217 ± 7.3e-05 mPa·s
3242.6 kPa | – | 49.821 ± 0.11 kg/m3 | – | 0.01248 ± 7.5e-05 mPa·s
3243.3 kPa | – | 49.834 ± 0.11 kg/m3 | – | 0.01248 ± 7.5e-05 mPa·s
3747.9 kPa | – | 59.965 ± 0.14 kg/m3 | – | 0.01283 ± 7.7e-05 mPa·s
3749.2 kPa | – | 59.991 ± 0.14 kg/m3 | – | 0.01284 ± 7.7e-05 mPa·s
4207.4 kPa | – | 70.041 ± 0.17 kg/m3 | – | 0.01323 ± 8e-05 mPa·s
4207.9 kPa | – | 70.052 ± 0.17 kg/m3 | – | 0.01323 ± 8e-05 mPa·s
4515.1 kPa | 229.821 ± 0.84 kg/m3 | – | 0.02377 ± 0.00017 mPa·s | –
4530.1 kPa | 241.836 ± 0.87 kg/m3 | – | 0.02518 ± 0.00018 mPa·s | –
4530.2 kPa | 241.88 ± 0.87 kg/m3 | – | 0.02519 ± 0.00018 mPa·s | –
4556 kPa | 256.611 ± 0.91 kg/m3 | – | 0.02701 ± 0.00019 mPa·s | –
4556.1 kPa | 256.634 ± 0.91 kg/m3 | – | 0.027 ± 0.00019 mPa·s | –
4576.2 kPa | 264.588 ± 0.93 kg/m3 | – | 0.02805 ± 0.0002 mPa·s | –
4576.3 kPa | 264.609 ± 0.93 kg/m3 | – | 0.02806 ± 0.0002 mPa·s | –
4606.1 kPa | 273.294 ± 0.96 kg/m3 and 273.287 ± 0.96 kg/m3 | – | 0.02925 ± 0.00021 mPa·s and 0.02926 ± 0.00021 mPa·s | –
4616.7 kPa | – | 79.819 ± 0.3 kg/m3 | – | 0.01365 ± 0.0001 mPa·s
4617.3 kPa | – | 79.834 ± 0.3 kg/m3 | – | 0.01365 ± 0.0001 mPa·s
4657.2 kPa | 283.68 ± 0.98 kg/m3 | – | 0.03078 ± 0.00022 mPa·s | –
4657.5 kPa | 283.727 ± 0.98 kg/m3 | – | 0.03078 ± 0.00022 mPa·s | –
4809.3 kPa | 301.877 ± 0.71 kg/m3 | – | 0.03369 ± 0.00022 mPa·s | –
4809.5 kPa | 301.894 ± 0.71 kg/m3 | – | 0.03367 ± 0.00022 mPa·s | –
5007.5 kPa | – | 89.97 ± 0.35 kg/m3 | – | 0.01412 ± 0.00013 mPa·s
5008.6 kPa | – | 90.002 ± 0.35 kg/m3 | – | 0.01412 ± 0.00013 mPa·s
5105.6 kPa | 320.889 ± 0.71 kg/m3 | – | 0.03705 ± 0.00024 mPa·s | –
5105.8 kPa | 320.902 ± 0.71 kg/m3 | – | 0.03706 ± 0.00024 mPa·s | –
5358.6 kPa | – | 99.87 ± 0.37 kg/m3 | – | 0.01462 ± 0.00013 mPa·s
5360.2 kPa | – | 99.917 ± 0.37 kg/m3 | – | 0.01462 ± 0.00013 mPa·s
5614.7 kPa | 339.536 ± 0.74 kg/m3 | – | 0.04075 ± 0.00027 mPa·s | –
5616.4 kPa | 339.584 ± 0.74 kg/m3 | – | 0.04077 ± 0.00027 mPa·s | –
5652.1 kPa | 340.592 ± 0.74 kg/m3 | – | 0.04096 ± 0.00027 mPa·s | –
5664.6 kPa | 340.939 ± 0.74 kg/m3 | – | 0.04104 ± 0.00027 mPa·s | –
5665.9 kPa | 340.974 ± 0.74 kg/m3 | – | 0.04105 ± 0.00027 mPa·s | –
5989.5 kPa | – | 119.759 ± 0.41 kg/m3 | – | 0.01573 ± 0.00014 mPa·s
5989.8 kPa | – | 119.769 ± 0.41 kg/m3 | – | 0.01573 ± 0.00014 mPa·s
6545.1 kPa | – | 139.717 ± 0.45 kg/m3 | – | 0.017 ± 0.00015 mPa·s
6545.3 kPa | – | 139.725 ± 0.45 kg/m3 | – | 0.017 ± 0.00015 mPa·s
6602.8 kPa | 360.84 ± 0.77 kg/m3 | – | 0.04555 ± 0.0003 mPa·s | –
6603.5 kPa | 360.852 ± 0.77 kg/m3 | – | 0.04553 ± 0.0003 mPa·s | –
7033 kPa | – | 159.017 ± 0.49 kg/m3 | – | 0.01838 ± 0.00016 mPa·s
7033.7 kPa | – | 159.048 ± 0.49 kg/m3 | – | 0.01838 ± 0.00016 mPa·s
7520.1 kPa | – | 179.397 ± 0.52 kg/m3 | – | 0.02002 ± 0.00017 mPa·s
7520.8 kPa | – | 179.425 ± 0.52 kg/m3 | – | 0.02002 ± 0.00017 mPa·s
7992.2 kPa | – | 199.277 ± 0.56 kg/m3 | – | 0.02182 ± 0.00018 mPa·s
7992.6 kPa | – | 199.294 ± 0.56 kg/m3 | – | 0.02182 ± 0.00018 mPa·s
8140.1 kPa | 381.197 ± 0.79 kg/m3 | – | 0.05077 ± 0.00033 mPa·s | –
8140.4 kPa | 381.2 ± 0.79 kg/m3 | – | 0.05076 ± 0.00033 mPa·s | –
8516 kPa | – | 220.253 ± 0.59 kg/m3 | – | 0.02395 ± 0.00019 mPa·s
8516.4 kPa | – | 220.267 ± 0.59 kg/m3 | – | 0.02394 ± 0.00019 mPa·s
9079.6 kPa | – | 240.483 ± 0.61 kg/m3 | – | 0.02624 ± 0.0002 mPa·s
9079.9 kPa | – | 240.492 ± 0.61 kg/m3 | – | 0.02623 ± 0.0002 mPa·s
9738.4 kPa | – | 260.609 ± 0.61 kg/m3 | – | 0.02877 ± 0.0002 mPa·s
9738.5 kPa | – | 260.612 ± 0.61 kg/m3 | – | 0.02878 ± 0.0002 mPa·s
10482 kPa | 401.46 ± 0.82 kg/m3 | – | 0.05673 ± 0.00036 mPa·s | –
10483 kPa | 401.469 ± 0.82 kg/m3 | – | 0.05674 ± 0.00036 mPa·s | –
10543 kPa | – | 280.635 ± 0.64 kg/m3 | – | 0.03161 ± 0.00022 mPa·s
10544 kPa | – | 280.644 ± 0.64 kg/m3 | – | 0.0316 ± 0.00022 mPa·s
11566 kPa | – | 300.645 ± 0.66 kg/m3 and 300.654 ± 0.66 kg/m3 | – | 0.03477 ± 0.00023 mPa·s
12882 kPa | – | 320.474 ± 0.69 kg/m3 | – | 0.03827 ± 0.00025 mPa·s
12884 kPa | – | 320.488 ± 0.69 kg/m3 | – | 0.03828 ± 0.00025 mPa·s
13841 kPa | 421.334 ± 0.85 kg/m3 and 421.333 ± 0.85 kg/m3 | – | 0.06347 ± 0.00039 mPa·s and 0.06343 ± 0.00039 mPa·s | –
14693 kPa | – | 341.059 ± 0.72 kg/m3 | – | 0.04235 ± 0.00027 mPa·s and 0.04234 ± 0.00027 mPa·s
17064 kPa | – | 361.23 ± 0.75 kg/m3 | – | 0.04694 ± 0.0003 mPa·s
17065 kPa | – | 361.234 ± 0.75 kg/m3 | – | 0.04691 ± 0.0003 mPa·s
18565 kPa | 441.166 ± 0.89 kg/m3 | – | 0.07127 ± 0.00044 mPa·s | –
18567 kPa | 441.173 ± 0.89 kg/m3 | – | 0.07127 ± 0.00044 mPa·s | –
20192 kPa | – | 381.227 ± 0.79 kg/m3 | – | 0.05209 ± 0.00033 mPa·s
20193 kPa | – | 381.229 ± 0.79 kg/m3 | – | 0.05209 ± 0.00033 mPa·s
24333 kPa | – | 401.231 ± 0.83 kg/m3 | – | 0.05798 ± 0.00036 mPa·s
24334 kPa | – | 401.235 ± 0.83 kg/m3 | – | 0.05795 ± 0.00036 mPa·s
25008 kPa | 460.907 ± 0.94 kg/m3 | – | 0.08006 ± 0.00049 mPa·s and 0.08024 ± 0.00049 mPa·s | –
25010 kPa | 460.912 ± 0.94 kg/m3 | – | 0.08022 ± 0.00049 mPa·s and 0.08013 ± 0.00049 mPa·s | –
28973 kPa | 470.682 ± 0.96 kg/m3 | – | 0.08526 ± 0.00052 mPa·s | –
28975 kPa | 470.686 ± 0.96 kg/m3 | – | 0.08531 ± 0.00052 mPa·s and 0.08536 ± 0.00052 mPa·s and 0.0853 ± 0.00052 mPa·s | –
29700 kPa | – | 421.002 ± 0.88 kg/m3 | – | 0.06464 ± 0.0004 mPa·s
29703 kPa | – | 421.011 ± 0.88 kg/m3 | – | 0.06466 ± 0.0004 mPa·s
29829 kPa | 472.623 ± 0.96 kg/m3 | – | 0.08626 ± 0.00053 mPa·s | –
29830 kPa | 472.624 ± 0.96 kg/m3 | – | 0.08626 ± 0.00053 mPa·s | –
